# Source: patent publication US20250000874A1, “BACTERIAL METABOLITES AND THEIR USE IN REDUCING INFLAMMATION” (LOYOLA UNIVERSITY OF CHICAGO, priority 2023, published 2025)
# Key:
# THP-1 cells = experiment: NC on TNFα production by THP-1s in response to TLR agonists (Example 7); format: cell-based, human
# Protocol: FIG. 32. NC Reduces TNFα Response to Toll 3 Agonist. Macrophages were cultured at a uniform density and allowed to adhere (in the case of BMDMs) or differentiate with PMA (in the case of THP-1s). macrophages were then incubated overnight in NC at a concentration of 50 uM at 37° C. The following day, the BMDMs were stimulated with P(I:C) at 50 ug/mL, 100 ug/mL, or 200 ug/mL for four hours and the THP-1s were stimulated at 200 […]. Supernatants were collected and TNFα concentrations were determined via ELISA.
# FIG. 34. TNFα production from THP-1 stimulation. Thp-1s plated at uniform density and incubated in PMA to differentiate and treated with NC overnight. The following day, cells were then treated with FSL at a concentration of 20 ng/ml and 50 ng/ml. After 4 hours, supernatant was collected and the concentration of TNFα was determined via ELISA.
# Bone marrow derived macrophages were collected from adult mice (6-8 weeks old). Femurs were obtained and cut with scissors. The connecting muscles were removed and the bones were flushed with PBS. PBS was collected and cells were counted and adjusted to the desired concentrations. Cells were then plated in DMEM supplemented with Macrophage Colony Stimulating Factor (M-CSF) at 10 ng/ml. […] After 7 days the cells were ready for use. […]
# Once ready, macrophages were then incubated with NC at a concentration of 50 uM overnight. […] Samples were treated for 4 hours and then Supernatant was then collected and the concentration of TNFα was then determined via the commercially available ELISA MAX Deluxe kit (Biolegend), with measurements reported in pg/mL.
# To investigate the effects NC, macrophages were stimulated in vitro with various TLR agonists, and the production of cytokines was measured via ELISA. […] After 4 hours, supernatant was collected and the concentration of TNFα was determined via ELISA.
# Further investigation of NC's impact on TLR signaling involved treating BMDMs with the TLR 4 agonist LPS. […] After 4 hours supernatant was collected and concentration of TNFα was measured via ELISA. […]
# mouse peritonitis = experiment: LPS-induced mouse peritonitis model, peritoneal neutrophils by flow cytometry (Ly6G); format: in vivo; conditions: JE i.p. two consecutive days, LPS i.p. day 3, 4 hours, vs PBS
# Protocol: FIG. 4A-4B. Bacterial Supernatant <10 kD fraction inhibits mouse peritonitis in vivo. 6-week old B6 mice were i.p. injected with <10 kD fraction from LF, TS medium, or PBS (500 μL/dose) at day 0 and day 1. At day 2, mice were given LPS (10 μg/mouse) or PBS via i.p. […] (FIG. 4A) The recruited neutrophils were quantified by flow cytometry using the neutrophil markers Ly6G and data were analyzed by FlowJo Software. (FIG. 4B) Neutrophil numbers are shown as mean±s.d., **p<0.01, n=3 per group.
# FIG. 9A-9C. FACS representation of mouse peritonitis model. Histograms were made from FACS gating of cells collected from the peritoneal cavity. (FIG. 9A) Mice were pre-treated for two consecutive days with compound JE and then received LPS. (FIG. 9B) Mice received only LPS. (FIG. 9C) Another group received PBS injected for two consecutive days to serve as a negative control. […]
# Commensal bacteria are non-invading bacteria that habit the host gastrointestinal tract without causing harm. […] We then measured the ability of the <10 kDa fraction to cross intestinal epithelium with the tight junctions without disrupting the integrity. […] To determine if the <10 kD fraction suppresses LPS-induced inflammatory responses in vivo, we intraperitoneally injected the <10 kDa fraction into C57/Bl6 mice followed by LPS and then analyzed peritoneal numbers of neutrophils by flow cytometry. […]
# [1] = In vivo toxicity of JE given I.P.: serum ALT and organ histology; conditions: JE 50 μM twice daily I.P. for 3 or 5 days
# Protocol: To test if JE has any toxicity, we first incubated murine macrophages with JE at different concentrations at 37° C. for two days, and determined viability of the cells. […] Further we injected the JE at 50 μM twice daily via I.P. for 3 or 5 days and then determined ALT levels in sera and examined the morphology in key organs, liver, kidney, spleen, intestines etc.
Structure (SMILES),"production and secretion of TNFα (THP-1 cells; NC 50 μM overnight, Poly (I:C) 200 mg/ml or 400 mg/mL, 4 hours)","production of TNFα (THP-1 cells; NC alone, 50 μM overnight)","TNFα production in response to TLR 2/6 agonist FSL-1 (THP-1 cells; NC overnight, FSL 20 ng/ml and 50 ng/ml, 4 hours)",peritoneal neutrophil recruitment (mouse peritonitis),"tissue damage in organs by histology (liver, kidney, spleen, intestines) [1]",ALT levels in sera ([1]; vs control group)
"CCCCCCCCCCCCCCCC(=O)N[C@@H](C(=O)O)[C@H](C)O [NC, N-Palmitoyl-D-Threonine]",reduced,not found to increase,exhibited inhibitory effects,,,
"CC(=O)O[C@@H]1CC[C@H]2[C@H]3CC[C@H]4CC(F)(F)CC[C@]4(C)[C@H]3CC[C@]12C [JE, 3,3-Difluoro-5-alpha-androstan-17-beta-yl acetate]",,,,reduced,did not see any tissue damage,no significant higher levels
